Test results: ChEMBL document CHEMBL5523679, “Discovery of 1,2,3-triazole incorporated indole-piperazines as potent antitubercular agents: Design, synthesis, in vitro biological evaluation, molecular docking and ADME studies” (Bioorg Med Chem, 2024)
Converted amounts (≈) assume the structure as drawn.

How the values were obtained:
Escherichia coli [1] = test: Antibacterial activity against Escherichia coli assessed as inhibition zone at 75 ug/ml by diffusion method; assay type: functional; details: read-out: IZ
Pseudomonas aeruginosa [2] = test: Antibacterial activity against Pseudomonas aeruginosa assessed as inhibition zone at 75 ug/ml by diffusion method; assay type: functional; details: read-out: IZ
[3] = system: Mycobacterium tuberculosis; test: Antimycobacterial activity against Mycobacterium tuberculosis H37Rv assessed as bacterial growth inhibition by microplate Alamar blue assay; assay type: functional
[4] = Cytotoxicity against African green monkey Vero cells assessed as inhibition of cell growth at 6.25 ug/ml measured after 72 hrs by MTT assay relative to control; assay type: toxicity, cell-based; details: chlorocebus sabaeus, at 6.25 µg/mL
Staphylococcus aureus [5] = test: Antibacterial activity against Staphylococcus aureus assessed as inhibition zone at 50 ug/ml by diffusion method; assay type: functional; details: read-out: IZ
[6] = Selectivity index, ratio of CC50 for African green monkey Vero cells to MIC for Mycobacterium tuberculosis H37Rv; assay type: toxicity; details: read-out: Selectivity Index
Staphylococcus aureus [7] = test: Antibacterial activity against Staphylococcus aureus assessed as inhibition zone at 75 ug/ml by diffusion method; assay type: functional; details: read-out: IZ
Escherichia coli [8] = test: Antibacterial activity against Escherichia coli assessed as inhibition zone at 50 ug/ml by diffusion method; assay type: functional; details: read-out: IZ
Staphylococcus aureus [9] = test: Antibacterial activity against Staphylococcus aureus assessed as inhibition zone at 25 ug/ml by diffusion method; assay type: functional; details: read-out: IZ
[10] = Cytotoxicity against African green monkey Vero cells measured after 72 hrs by MTT assay; assay type: toxicity, cell-based; details: chlorocebus sabaeus
Escherichia coli [11] = test: Antibacterial activity against Escherichia coli assessed as inhibition zone at 25 ug/ml by diffusion method; assay type: functional; details: read-out: IZ
Pseudomonas aeruginosa [12] = test: Antibacterial activity against Pseudomonas aeruginosa assessed as inhibition zone at 50 ug/ml by diffusion method; assay type: functional; details: read-out: IZ
Pseudomonas aeruginosa [13] = test: Antibacterial activity against Pseudomonas aeruginosa assessed as inhibition zone at 25 ug/ml by diffusion method; assay type: functional; details: read-out: IZ

Row | SMILES | zone of inhibition at 75 µg/mL (Escherichia coli [1]) [mm] | zone of inhibition at 75 µg/mL (Pseudomonas aeruginosa [2]) [mm] | MIC [3] [µM] | inhibition at 72 h, 6.25 ug/ml [4] [%] | zone of inhibition at 50 µg/mL (Staphylococcus aureus [5]) [mm] | selectivity ratio [6] | zone of inhibition at 75 µg/mL (Staphylococcus aureus [7]) [mm] | zone of inhibition at 50 µg/mL (Escherichia coli [8]) [mm] | zone of inhibition at 25 µg/mL (Staphylococcus aureus [9]) [mm] | CC50 at 72 h [10] [µg/mL] | zone of inhibition at 25 µg/mL (Escherichia coli [11]) [mm] | zone of inhibition at 50 µg/mL (Pseudomonas aeruginosa [12]) [mm] | zone of inhibition at 25 µg/mL (Pseudomonas aeruginosa [13]) [mm]
1 | O=C(CCc1cn(Cc2ccc(F)cc2)c2ccccc12)N1CCN(C(=O)c2ccc(F)cc2)CC1 | 18 | 13 | 12.8 | 31.9 | 17 | 198 | 23 | 15 | 13 | 619 (≈ 1270 µM) | – | – | –
2 | O=C(CCc1cn(Cc2cn(Cc3ccc(F)cc3)nn2)c2ccccc12)N1CCN(S(=O)(=O)c2ccc(F)cc2)CC1 | 25 | 15 | 2.6 | 11.9 | 18 | 1060 | 20 | 20 | 13 | 1700 (≈ 2810 µM) | 13 | 10 | –
3 | O=C(Cc1c[nH]c2ccccc12)N1CCN(S(=O)(=O)c2ccccc2)CC1 | 17 | 18 | > 120 | – | 15 | – | 18 | 15 | 13 | – | 13 | 15 | 13
4 | O=C(CCc1cn(Cc2cn(Cc3ccc(F)cc3)nn2)c2ccccc12)N1CCN(C(=O)c2ccc(F)cc2)CC1 | 23 | 13 | 2.8 | 11.7 | 15 | 750 | 20 | 20 | 13 | 1200 (≈ 2110 µM) | 15 | – | –
5 | O=C(CCc1cn(Cc2cn(Cc3ccc(F)cc3)nn2)c2ccccc12)N1CCN(C(=O)c2cccnc2)CC1 | 25 | 10 | 2.9 | 11.7 | 15 | 732 | 18 | 23 | 6 | 1170 (≈ 2120 µM) | 15 | – | –
6 | O=C(CCc1cn(Cc2ccc(F)cc2)c2ccccc12)N1CCN(C(=O)c2ccc(Cl)cc2)CC1 | 18 | 13 | 12.4 | 36.4 | 19 | 61.6 | 23 | 15 | 13 | 385 (≈ 764 µM) | – | 10 | –
7 | O=C(CCc1cn(Cc2cn(Cc3ccc(F)cc3)nn2)c2ccccc12)N1CCN(C(=O)c2ccc(Cl)cc2)CC1 | 23 | 15 | 10.7 | 7.9 | 15 | 158 | 18 | 20 | 6 | 986 (≈ 1680 µM) | 13 | 12 | –
8 | O=C(Cc1cn(Cc2ccc(F)cc2)c2ccccc12)N1CCN(C(=O)c2ccc(F)cc2)CC1 | 18 | 13 | 13.2 | 33.8 | 18 | 71.7 | 21 | 15 | 15 | 448 (≈ 946 µM) | – | 10 | –
